18 compounds from publication PMC8954640, “Pyranodipyran Derivatives with Tyrosyl DNA Phosphodiesterase 1 Inhibitory Activities and Fluorescent Properties from Aspergillus sp. EGF 15-0-3” (Marine Drugs, 2022) can be followed below.

One may read the IC50 as the point on the concentration scale where inhibition reaches its midpoint.

Data set [1] can be described thus: Measurement of fluorescent properties in MeOH. The format is physicochemical. The settings on record: 300 μg/mL in MeOH; for Stokes Shift / λ em: λexc = 365 nm. As to the method: (§1) Each probe was prepared at 300 μg/mL in MeOH. The absorption spectra were recorded from 200 to 400 nm using a Chirascan circular dichroism spectrometer ([…]). The fluorescence spectra were recorded from 385 to 750 nm with an excitation wavelength of 365 nm using Edinburgh Instruments FLS1000. For UV-irradiated probes, each probe was exposed to 365 nm UV light from a handheld UV lamp for a certain time, and the fluorescence spectra were then recorded using the same method mentioned above.

The next data set deals with TDP1 (Homo sapiens, UniProt Q9NUW8). Put plainly: TDP1 inhibition fluorescence assay (quenched fluorescent single-stranded oligonucleotide substrate). The settings on record: substrate 5′-FAM-AGGATCTAAAAGACTT-BHQ-3′, repeated at least three times, read-out: TDP1 Inhibition (IC50 ± SD). It is filed as biochemical. The text has this: Considering the chiral properties of compounds will affect their activity, all of the obtained compounds, including racemates and enantiomers, were screened for TDP1 inhibition through a fluorescence assay using a quenched fluorescent single-stranded oligonucleotide (5′-FAM-AGGATCTAAAAGACTT-BHQ-3′) as substrate. […] To further investigate the mechanism of the TDP1 inhibitory activity of (+)-6 and (−)-6, a hypothetical binding mode was built using in silico docking from the X-ray crystal structure of humanized TDP1-inhibitor (PDB: 6DJD) to evaluate the mode of interactions of (+)-6 and (−)-6 with TDP1. The inhibitor was docked into the binding site. The tricyclic core of (+)-6 binds to the DNA binding groove in the proximity of the catalytically important residue His263, indicating a potential π–π stacking interaction stabilizing the inhibitor TDP1 complex. Three hypothetical hydrogen bonds were observed between the phenol hydroxy group and the amide group of residue Asn516 (2.9 Å), the 1″-hydroxy group and Ser518 residue (3.0 Å), and the pyran O atom and Ser400 residue (3.5 Å), which might contribute to TDP1 inhibition. Similarly, the polycyclic core scaffold of (−)-6 also lied along the DNA binding groove (Figure 7B), and the H-bonds (3.1 Å) between the phenol hydroxy group and the amide group of residue Asn516 was also observed. In addition, two H-bonds formed between the 2″-hydroxyl group and Ser400 residue (2.5 Å) and the pyran oxygen atom and phenol hydroxy group of Tyr204 residue (3.1 Å). […] The gold score values of (+)-6 and (−)-6 were 55.62 and 44.90, respectively. […] The mechanism of the TDP1 inhibitory activity of (±)-6 remains to be validated by biophysical assays in further research.
Chain of TDP1 (Q9NUW8 whole entry): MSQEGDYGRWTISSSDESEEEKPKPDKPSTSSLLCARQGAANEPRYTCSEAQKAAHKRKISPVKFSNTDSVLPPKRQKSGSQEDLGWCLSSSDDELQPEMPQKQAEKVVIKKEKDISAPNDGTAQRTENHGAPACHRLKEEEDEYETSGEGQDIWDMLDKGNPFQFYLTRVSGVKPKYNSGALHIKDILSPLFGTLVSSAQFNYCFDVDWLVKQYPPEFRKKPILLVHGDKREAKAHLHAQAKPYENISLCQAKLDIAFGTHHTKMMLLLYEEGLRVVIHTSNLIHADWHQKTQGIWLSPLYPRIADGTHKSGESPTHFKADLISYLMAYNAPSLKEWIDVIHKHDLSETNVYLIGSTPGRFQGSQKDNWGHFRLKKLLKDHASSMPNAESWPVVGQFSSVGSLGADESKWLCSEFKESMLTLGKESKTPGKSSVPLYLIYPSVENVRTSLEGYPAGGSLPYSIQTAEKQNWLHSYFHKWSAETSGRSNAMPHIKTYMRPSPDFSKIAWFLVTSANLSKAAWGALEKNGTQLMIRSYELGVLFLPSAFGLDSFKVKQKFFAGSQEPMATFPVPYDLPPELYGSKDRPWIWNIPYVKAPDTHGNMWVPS
The TDP1 inhibition was tested through a fluorescence assay according to a previously reported method. Detailed procedures are included in the Supporting Information. […]
Briefly, TDP1 solution (20 μL/well, 0.02 μL of purified TDP1 (100 nM) in 10 mM Tris-HCl, pH 7.5, 50 mM KCl, 1 mM EDTA, 1 mM DTT) was dispensed into wells of a white 384-well plate (NEST). The tested compound solution in DMSO (5 μL) was pinned into assay plates and incubated at room tempera-ture for 30 min. During this time, the plates were read by a Flash multimode reader (Molecular Devices) at Ex485/Em510 nm to identify false-positive compound that had autofluorescence. The linear oligonucle-otide substrate 5′-FAM-AGGATCTAAAAGACTT-BHQ-3′ (25 μL, 35 nM) was dispensed into the wells to start the reaction. The whole plate was immediately read five times using a kinetic read on the Flash […]
multimode reader (Molecular Devices) (Ex485/Em510 nm). TDP1 percentage inhibition of the tested com-pound was calculated by comparing the rate of increase in fluorescence throughout time for the com-pound-treated wells to that of DMSO control wells. […]

Data set [2] can be described thus: Change in fluorescence emission upon photoirradiation with 365 nm UV light. It is filed as physicochemical. The conditions noted are these: MeOH. As to the method:
In addition, the fluorescent properties of 1–6 were also evaluated. […] Meanwhile, compounds 1–6 with the concentration of […] were exposed to […] UV light, and their fluorescence emission spectra were recorded (Figure 10) as a control experiment because the assay used to assess TDP1 inhibition was a fluorescence assay. […] In addition, during the TDP1 inhibition assay, the tested compound solutions were read by a Flash multimode reader at Ex485/Em510 nm to identify false-positive compounds that had autofluorescence.
as §1

Structures are written as SMILES. Some results are limits rather than exact numbers.

On to `CCCCCC1OC(OC)c2c3c(cc(O)c2C1OC)CC(O)C(C)(C)O3` (racemic) [(±)-5, (±)-Aspergiletal C], for which, in data set [1], the ε is reported as 106186.60 M^–1cm^–1, the λ abs is 203 nm, the “φ F” value is reported as 0.0482 and the “Stokes Shift” value was 229 nm. This compound had a λ em in data set [1] of 432 nm. For the same compound, at TDP1, the IC50 was more than 100 µM. In data set [2], the “change of fluorescence with time upon 365 nm irradiation (photobleaching)” value (“change of fluorescence” for short) was “significant loss of fluorescence with time”.
As for `CCCCCC1OC(OC)c2c3c(cc(O)c2C1OC)C=C(OC)C(C)(C)O3` (racemic) [(±)-3, (±)-Aspergiletal A], in data set [1], the ε is recorded as 61279.01 M^–1cm^–1, the λ abs worked out at 206 nm, the “φ F” value came out at 0.0048 and the “Stokes Shift” value worked out at 266 nm. Besides, the λ em in data set [1] was 472 nm. Further, the IC50 at TDP1 was more than 100 µM. Besides, in data set [2], the “change of fluorescence” value is on record as “significant loss of fluorescence with time”.
For the compound `CCCCC[C@H]1O[C@H](OC)c2c3c(cc(O)c2[C@H]1OC)C[C@H](O)C(C)(C)O3` [(+)-5, Aspergiletal C], on TDP1, the IC50 is more than 100 µM.
Same read-out and setting: the result for `CCCCC[C@@H]1O[C@@H](OC)c2c3c(cc(O)c2[C@H]1OC)C=CC(C)(C)O3` [(−)-2, eurotiumide F] reads more than 100 µM; that for `CCCCC[C@H]1O[C@H](OC)c2c3c(cc(O)c2[C@H]1OC)C[C@H](OC)C(C)(C)O3` [(+)-4, Aspergiletal B], more than 100 µM.
Take `CCCCCC1OC(OC)c2c3c(cc(O)c2C1OC)C=CC(C)(C)O3` (racemic) [(±)-1, (±)-Eurotiumide G]: in data set [1] (listed as 1), the ε came out at 125388.61 M^–1cm^–1, the λ abs worked out at 221 nm, the “φ F” value is recorded as 0.0392 and the “Stokes Shift” value is given as 224 nm. The compound further returned a λ em in data set [1] (listed as 1) of 445 nm. Also, the IC50 at TDP1 is more than 100 µM. The “change of fluorescence” value in data set [2] (listed as 1) is reported as “increased substantially with time”.
As to `CCCCC[C@@H]1O[C@@H](OC)c2c3c(cc(O)c2[C@@H]1OC)C[C@@H](OC)C(C)(C)O3` [(−)-4, Aspergiletal B], on TDP1, the IC50 was more than 100 µM.
Still for that read-out and setting: next, `CCCCCC1OC(OC)c2c3c(cc(O)c2C1OC)C=CC(C)(C)O3` (single isomer, unassigned; (-)) [(−)-1, eurotiumide G]: more than 100 µM; `CCCCC[C@H]1O[C@H](OC)c2c3c(cc(O)c2[C@@H]1OC)C=CC(C)(C)O3` [(+)-2, eurotiumide F]: more than 100 µM; `CCCCC[C@H]1O[C@H](OC)c2c3c(cc(O)c2[C@H]1OC)C=CC(C)(C)O3` [(+)-1, eurotiumide G]: more than 100 µM.
As for `CCCCCC1OC(OC)c2c3c(cc(O)c2C1OC)C=CC(C)(C)O3` (racemic) [(±)-2, (±)-Eurotiumide F], in data set [1] (listed as 2), the ε turned out to be 70590.11 M^–1cm^–1, the λ abs stood at 223 nm, the “φ F” value is on record as 0.0225 and the “Stokes Shift” value was found to be 241 nm. The λ em in data set [1] (listed as 2) stood at 464 nm. The IC50 on TDP1 turned out to be 57.8 ± 2.2 µM. For the same compound, in data set [2] (listed as 2), the “change of fluorescence” value is “responded similarly to 1 but with a smaller magnitude improvement in fluorescence”.
In the case of `CCCCC[C@@H]1O[C@@H](OC)c2c3c(cc(O)c2[C@@H]1OC)C[C@@H](O)C(C)(C)O3` [(−)-5, Aspergiletal C], the IC50 at TDP1 is more than 100 µM.
For `CCCCCC1OC(OC)c2c3c(cc(O)c2C1OC)C(O)C(O)C(C)(C)O3` (racemic) [(±)-6, (±)-Aspergiletal D], in data set [1], the ε is recorded as 127827.28 M^–1cm^–1, the λ abs was 225 nm, the “φ F” value is recorded as 0.0416 and the “Stokes Shift” value was 199 nm. This compound also had a λ em in data set [1] of 424 nm. At TDP1, the IC50 is 6.5 ± 0.73 µM. The “change of fluorescence” value in data set [2] is reported as “significant loss of fluorescence with time”.
On to `CCCCC[C@@H]1O[C@@H](OC)c2c3c(cc(O)c2[C@@H]1OC)[C@@H](O)[C@@H](O)C(C)(C)O3` [(−)-6, Aspergiletal D], for which the IC50 at TDP1 was found to be 37.3 ± 3.63 µM.
Still for that read-out and setting: the result for `CCCCC[C@H]1O[C@H](OC)c2c3c(cc(O)c2[C@H]1OC)[C@H](O)[C@H](O)C(C)(C)O3` [(+)-6, Aspergiletal D] reads 27.8 ± 1.73 µM.
For the compound `CCCCC[C@H]1O[C@H](OC)c2c3c(cc(O)c2[C@H]1OC)C=C(OC)C(C)(C)O3` [(+)-3, Aspergiletal A], the IC50 on TDP1 is more than 100 µM.
The same measure, in the same setting: the result for `CCCCC[C@@H]1O[C@@H](OC)c2c3c(cc(O)c2[C@@H]1OC)C=C(OC)C(C)(C)O3` [(−)-3, Aspergiletal A] reads more than 100 µM.
As for `CCCCCC1OC(OC)c2c3c(cc(O)c2C1OC)CC(OC)C(C)(C)O3` (racemic) [(±)-4, (±)-Aspergiletal B], in data set [1], the ε is 208307.41 M^–1cm^–1, the λ abs turned out to be 225 nm, the “φ F” value was 0.0649 and the “Stokes Shift” value is 203 nm. Moreover, in data set [1], the λ em is 428 nm. Besides, at TDP1, the IC50 was more than 100 µM. Further, the “change of fluorescence” value in data set [2] is reported as “inert to photobleaching”.
